Test results from publication PMC5034536, “Molecular insights into substrate recognition and catalytic mechanism of the chaperone and FKBP peptidyl-prolyl isomerase SlyD” (BMC Biology, 2016).
Several values for one entry are separate records, joined by “and”; a condition that tells them apart may be missing. Equal entries are not always repeated.

Legend:
TtSlyDFL Y13F = TtSlyDFL Y13F (Thermus thermophilus, UniProt Q5SLE7, Y13F); test: Tetrapeptide activity by NMR lineshape analysis
Experimental: (§3) Although the kcat/KM and KD values refer to different substrates, this analysis should provide valuable insights into the relative impact of a given mutation on binding and turnover.
(§4) NMR samples contained TtSlyD in 20 mM HEPES, 100 mM NaCl, pH 7.5, and 10 % (v/v) D2O. All experiments were performed at a static magnetic field strength of 14.1 T and a temperature of 25 °C. […] Lineshape analysis was performed using MATLAB.
(§5) For tetrapeptide activity studies, one-dimensional ^1H spectra of 500 μM suc-ALPF-pNA tetrapeptide containing 2 μM, 4 μM, or 6 μM of TtSlyD were recorded for the different mutants [59].

TtSlyDFL H119A = TtSlyDFL H119A (Thermus thermophilus, UniProt Q5SLE7, H119A); test: Tetrapeptide activity by NMR lineshape analysis
Experimental: (§6) NMR samples contained TtSlyD in 20 mM HEPES, 100 mM NaCl, pH 7.5, and 10 % (v/v) D2O. All experiments were performed at a static magnetic field strength of 14.1 T and a temperature of 25 °C. The spectra were processed with NMRpipe [57] and analyzed with NMRview [58], except one-dimensional spectra, which were processed and analyzed using VNMRJ (Agilent, Inc.). Lineshape analysis was performed using MATLAB.
as §5

TtSlyDFL A78G = TtSlyDFL A78G (Thermus thermophilus, UniProt Q5SLE7, A78G); test: Tetrapeptide activity by NMR lineshape analysis
Experimental: as §4, §5

TtSlyDFL Y92A = TtSlyDFL Y92A (Thermus thermophilus, UniProt Q5SLE7, Y92A); test: Tetrapeptide activity by NMR lineshape analysis
Experimental: as §4, §5

TtSlyDFL I37G = TtSlyDFL I37G (Thermus thermophilus, UniProt Q5SLE7, I37G); test: Tetrapeptide activity by NMR lineshape analysis
Experimental: as §3, §4, §5

TtSlyDFL Q94A = TtSlyDFL Q94A (Thermus thermophilus, UniProt Q5SLE7, Q94A); test: Tetrapeptide activity by NMR lineshape analysis
Experimental: as §4, §5

TtSlyDFL Y63F = TtSlyDFL Y63F (Thermus thermophilus, UniProt Q5SLE7, Y63F); test: Tetrapeptide activity by NMR lineshape analysis
Experimental: as §3, §4, §5

TtSlyDFL M96A = TtSlyDFL M96A (Thermus thermophilus, UniProt Q5SLE7, M96A); test: Tetrapeptide activity by NMR lineshape analysis
Experimental: as §4, §5

human FKBP12 = human FKBP12 with suc-ALPF-pNA as a substrate; ref U Weininger, unpublished data; cited from earlier work
TtSlyDFL F128A = TtSlyDFL F128A (Thermus thermophilus, UniProt Q5SLE7, F128A); test: Tetrapeptide activity by NMR lineshape analysis
Experimental: as §6, §5

TtSlyDFL Y63A = TtSlyDFL Y63A (Thermus thermophilus, UniProt Q5SLE7, Y63A); test: Tetrapeptide activity by NMR lineshape analysis
Experimental: as §4, §5

TtSlyDFL N35A = TtSlyDFL N35A (Thermus thermophilus, UniProt Q5SLE7, N35A); test: Tetrapeptide activity by NMR lineshape analysis
Experimental: as §3, §4, §5

E. coli SlyD = details: estimated, E. coli SlyD at high salt concentration; cited from earlier work
TtSlyDFL = test: Tetrapeptide cis/trans isomerization activity by NMR lineshape analysis; assay type: biochemical, Thermus thermophilus
Source text: (§1) In order to accurately measure the catalytic activity of TtSlyDFL on peptidyl-prolyl cis/trans isomerization, we carried out Michaelis-Menten studies under equilibrium conditions using NMR lineshape analysis, which is capable of monitoring the rate of exchange between cis and trans conformations of the peptide substrate. Initially, we benchmarked the method against literature data using the standard suc-ALPF-pNA tetrapeptide (Fig. 7a). […] For the TtSlyDΔIF construct, we obtained kcat/KM = 0.85 ± 0.01 μM^−1s^−1, showing a minor influence of the IF domain.
(§2) Lineshape analysis was performed using MATLAB.

TtSlyDΔIF = test: as above; assay type: biochemical, Thermus thermophilus
Source text: as §1, §2

TtSlyDFL D23A = TtSlyDFL D23A (Thermus thermophilus, UniProt Q5SLE7, D23A); test: Tetrapeptide activity by NMR lineshape analysis
Experimental: as §3, §4, §5

[1] = substrate 500 μM suc-ALPF-pNA, NMR lineshape analysis, 25 °C
[2] = suc-ALPF-pNA, relative to wild-type TtSlyDFL

Chain of TtSlyDFL N35A (Q5SLE7 entry or part of it N35A): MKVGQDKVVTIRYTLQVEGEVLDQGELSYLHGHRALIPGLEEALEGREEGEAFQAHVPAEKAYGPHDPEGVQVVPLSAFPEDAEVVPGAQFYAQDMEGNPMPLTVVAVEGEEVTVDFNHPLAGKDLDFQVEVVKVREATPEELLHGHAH
Chain of TtSlyDFL Y63F (Q5SLE7 entry or part of it Y63F): as the sequence (Q5SLE7 entry or part of it N35A) above, with A35N, Y63F counted along it
Chain of TtSlyDFL Y92A (Q5SLE7 entry or part of it Y92A): as the sequence (Q5SLE7 entry or part of it N35A) above, with A35N, Y92A counted along it
Chain of TtSlyDFL M96A (Q5SLE7 entry or part of it M96A): as the sequence (Q5SLE7 entry or part of it N35A) above, with A35N, M96A counted along it
Chain of TtSlyDFL F128A (Q5SLE7 entry or part of it F128A): as the sequence (Q5SLE7 entry or part of it N35A) above, with A35N, F128A counted along it
Chain of TtSlyDFL D23A (Q5SLE7 entry or part of it D23A): as the sequence (Q5SLE7 entry or part of it N35A) above, with D23A, A35N counted along it
Chain of TtSlyDFL Q94A (Q5SLE7 entry or part of it Q94A): as the sequence (Q5SLE7 entry or part of it N35A) above, with A35N, Q94A counted along it
Chain of TtSlyDFL Y63A (Q5SLE7 entry or part of it Y63A): as the sequence (Q5SLE7 entry or part of it N35A) above, with A35N, Y63A counted along it
Chain of TtSlyDFL I37G (Q5SLE7 entry or part of it I37G): as the sequence (Q5SLE7 entry or part of it N35A) above, with A35N, I37G counted along it
Chain of TtSlyDFL Y13F (Q5SLE7 entry or part of it Y13F): as the sequence (Q5SLE7 entry or part of it N35A) above, with Y13F, A35N counted along it
Chain of TtSlyDFL H119A (Q5SLE7 entry or part of it H119A): as the sequence (Q5SLE7 entry or part of it N35A) above, with A35N, H119A counted along it
Chain of TtSlyDFL A78G (Q5SLE7 entry or part of it A78G): as the sequence (Q5SLE7 entry or part of it N35A) above, with A35N, A78G counted along it

Q: Which “Activity (kcat/KM)” value (TtSlyDFL Y13F; [1]) does the source give for “succinyl-Ala-Leu-Pro-Phe-4-nitroanilide [suc-ALPF-pNA]” here?
A: 1.35 ± 0.17 10^6 M/s

Q: And the Relative activity (TtSlyDFL Y13F; [2])?
A: 92%

Q: What about the “Activity (kcat/KM)” value (TtSlyDFL H119A; [1]) of the same substance?
A: 1.23 ± 0.02 10^6 M/s

Q: And the Relative activity (TtSlyDFL H119A; [2])?
A: 84%

Q: What about the “Activity (kcat/KM)” value (TtSlyDFL A78G; [1]) of the same substance?
A: 0.76 ± 0.14 10^6 M/s

Q: And the Relative activity (TtSlyDFL A78G; [2])?
A: 52%

Q: And the “Activity (kcat/KM)” value (TtSlyDFL Y92A; [1])?
A: 0.53 ± 0.12 10^6 M/s

Q: And the Relative activity (TtSlyDFL Y92A; [2])?
A: 36%

Q: And the “Activity (kcat/KM)” value (TtSlyDFL I37G; [1])?
A: 0.73 ± 0.12 10^6 M/s

Q: And the Relative activity (TtSlyDFL I37G; [2])?
A: 50%

Q: What about the “Activity (kcat/KM)” value (TtSlyDFL Q94A; [1]) of the same substance?
A: 1.44 ± 0.49 10^6 M/s

Q: And the Relative activity (TtSlyDFL Q94A; [2])?
A: 98%

Q: What about the “Activity (kcat/KM)” value (TtSlyDFL Y63F; [1]) of the same substance?
A: 1.12 ± 0.11 10^6 M/s

Q: And the Relative activity (TtSlyDFL Y63F; [2])?
A: 76%

Q: And the “Activity (kcat/KM)” value (TtSlyDFL M96A; [1])?
A: 0.58 ± 0.15 10^6 M/s

Q: And the Relative activity (TtSlyDFL M96A; [2])?
A: 39%

Q: And the kcat (human FKBP12)?
A: above 10,000 s^−1

Q: And the “Activity (kcat/KM)” value (TtSlyDFL F128A; [1])?
A: 0.52 ± 0.16 10^6 M/s

Q: And the Relative activity (TtSlyDFL F128A; [2])?
A: 35%

Q: And the “Activity (kcat/KM)” value (TtSlyDFL Y63A; [1])?
A: 0.31 ± 0.19 10^6 M/s

Q: What about the Relative activity (TtSlyDFL Y63A; [2]) of the same substance?
A: 21%

Q: And the “Activity (kcat/KM)” value (TtSlyDFL N35A; [1])?
A: 1.04 ± 0.28 10^6 M/s

Q: And the Relative activity (TtSlyDFL N35A; [2])?
A: 71%

Q: What about the Kd (E. coli SlyD) of the same substance?
A: ~44 µM

Q: What about the kcat (TtSlyDFL; TtSlyD, suc-ALPF-pNA tetrapeptide as substrate) of the same substance?
A: > 10,000 s^−1

Q: What about the kcat/KM (TtSlyDFL; TtSlyDFL, 500 μM suc-ALPF-pNA, enzyme concentration varied, linear regression, 25 °C) of the same substance?
A: 1.47 ± 0.05 10^6 M^−1s^−1 and 1.5 10^6 M^−1s^−1

Q: And the “Activity (kcat/KM)” value (TtSlyDFL; wild-type TtSlyDFL, substrate 500 μM suc-ALPF-pNA, NMR lineshape analysis, 25 °C)?
A: 1.47 ± 0.05 10^6 M^-1 s^-1

Q: And the kcat/KM (TtSlyDFL; wild-type TtSlyDFL, suc-ALPF-pNA as substrate, NMR lineshape analysis, equilibrium conditions, 25 °C)?
A: 1.47 ± 0.05 µM⁻¹ s⁻¹

Q: And the Relative activity (TtSlyDFL; wild-type TtSlyDFL, suc-ALPF-pNA, reference)?
A: 100%

Q: What about the kcat/KM (TtSlyDΔIF; 500 μM suc-ALPF-pNA, enzyme concentration varied, linear regression, 25 °C) of the same substance?
A: 0.85 ± 0.01 10^6 M^−1s^−1

Q: And the “Activity (kcat/KM)” value (TtSlyDΔIF; [1])?
A: 0.85 ± 0.01 10^6 M^-1 s^-1

Q: What about the kcat/KM (TtSlyDΔIF; suc-ALPF-pNA as substrate, NMR lineshape analysis, 25 °C) of the same substance?
A: 0.85 ± 0.01 µM⁻¹ s⁻¹

Q: What about the Relative activity (TtSlyDΔIF; [2]) of the same substance?
A: 58%

Q: What about the “Activity (kcat/KM)” value (TtSlyDFL D23A; [1]) of the same substance?
A: 1.15 ± 0.21 10^6 M/s

Q: And the Relative activity (TtSlyDFL D23A; [2])?
A: 78%
